From the NIST ThermoML archive (doi:10.1016/j.jct.2015.01.004)
Several values for one entry are separate records, joined by “and”; a condition that tells them apart may be missing. Identical values can stand only once. Numbers after ± are expanded uncertainties.

Experiment: molar heat capacity at constant pressure; xn = mol fraction of the nth substance listed
Settings: 100 kPa

[Si] [silicon] + [Li]
Settings | molar heat capacity at constant pressure
213.05 K, Crystal of intercomponent compound 2, relaxation calorimeter, x2 = 0.804 | 19.41 ± 0.79 J/K/mol
217.1 K, Crystal of intercomponent compound 2, relaxation calorimeter, x2 = 0.804 | 19.42 ± 0.79 J/K/mol
217.11 K, Crystal of intercomponent compound 1, relaxation calorimetry, x2 = 0.81 | 19.04 ± 0.77 J/K/mol
217.12 K, Crystal of intercomponent compound 2, relaxation calorimeter, x2 = 0.804 | 19.59 ± 0.8 J/K/mol
220 K, Crystal of intercomponent compound 1, relaxation calorimetry + DSC, x2 = 0.81 | 19.27 ± 0.78 J/K/mol
220 K, Crystal of intercomponent compound 2, relaxation calorimetry + DSC, x2 = 0.804 | 19.69 ± 0.8 J/K/mol
221.11 K, Crystal of intercomponent compound 2, relaxation calorimeter, x2 = 0.804 | 19.62 ± 0.8 J/K/mol
221.12 K, Crystal of intercomponent compound 1, relaxation calorimetry, x2 = 0.81 | 19.24 ± 0.78 J/K/mol
221.13 K, Crystal of intercomponent compound 2, relaxation calorimeter, x2 = 0.804 | 19.84 ± 0.81 J/K/mol
225.23 K, Crystal of intercomponent compound 2, relaxation calorimeter, x2 = 0.804 | 19.86 ± 0.81 J/K/mol
225.24 K, Crystal of intercomponent compound 1, relaxation calorimetry, x2 = 0.81 | 19.46 ± 0.79 J/K/mol
225.25 K, Crystal of intercomponent compound 2, relaxation calorimeter, x2 = 0.804 | 20.03 ± 0.81 J/K/mol
229.28 K, Crystal of intercomponent compound 2, relaxation calorimeter, x2 = 0.804 | 20.05 ± 0.81 J/K/mol
229.3 K, Crystal of intercomponent compound 1, relaxation calorimetry, x2 = 0.81 | 19.66 ± 0.8 J/K/mol
229.31 K, Crystal of intercomponent compound 2, relaxation calorimeter, x2 = 0.804 | 20.22 ± 0.82 J/K/mol
230 K, Crystal of intercomponent compound 1, relaxation calorimetry + DSC, x2 = 0.81 | 19.74 ± 0.8 J/K/mol
230 K, Crystal of intercomponent compound 2, relaxation calorimetry + DSC, x2 = 0.804 | 20.16 ± 0.82 J/K/mol
233.29 K, Crystal of intercomponent compound 2, relaxation calorimeter, x2 = 0.804 | 20.23 ± 0.82 J/K/mol
233.3 K, Crystal of intercomponent compound 1, relaxation calorimetry, x2 = 0.81 | 19.83 ± 0.81 J/K/mol
233.31 K, Crystal of intercomponent compound 2, relaxation calorimeter, x2 = 0.804 | 20.38 ± 0.83 J/K/mol
237.4 K, Crystal of intercomponent compound 2, relaxation calorimeter, x2 = 0.804 | 20.4 ± 0.83 J/K/mol
237.41 K, Crystal of intercomponent compound 1, relaxation calorimetry, x2 = 0.81 | 20 ± 0.81 J/K/mol
237.43 K, Crystal of intercomponent compound 2, relaxation calorimeter, x2 = 0.804 | 20.54 ± 0.83 J/K/mol
240 K, Crystal of intercomponent compound 1, relaxation calorimetry + DSC, x2 = 0.81 | 20.18 ± 0.82 J/K/mol
240 K, Crystal of intercomponent compound 2, relaxation calorimetry + DSC, x2 = 0.804 | 20.58 ± 0.84 J/K/mol
241.46 K, Crystal of intercomponent compound 2, relaxation calorimeter, x2 = 0.804 | 20.62 ± 0.84 J/K/mol
241.48 K, Crystal of intercomponent compound 1, relaxation calorimetry, x2 = 0.81 | 20.17 ± 0.82 J/K/mol
241.49 K, Crystal of intercomponent compound 2, relaxation calorimeter, x2 = 0.804 | 20.73 ± 0.84 J/K/mol
245.47 K, Crystal of intercomponent compound 2, relaxation calorimeter, x2 = 0.804 | 20.87 ± 0.85 J/K/mol
245.48 K, Crystal of intercomponent compound 1, relaxation calorimetry, x2 = 0.81 | 20.3 ± 0.82 J/K/mol
245.5 K, Crystal of intercomponent compound 2, relaxation calorimeter, x2 = 0.804 | 20.93 ± 0.85 J/K/mol
249.59 K, Crystal of intercomponent compound 2, relaxation calorimeter, x2 = 0.804 | 21 ± 0.85 J/K/mol
249.6 K, Crystal of intercomponent compound 1, relaxation calorimetry, x2 = 0.81 | 20.44 ± 0.83 J/K/mol
249.62 K, Crystal of intercomponent compound 2, relaxation calorimeter, x2 = 0.804 | 21.13 ± 0.86 J/K/mol
250 K, Crystal of intercomponent compound 1, relaxation calorimetry + DSC, x2 = 0.81 | 20.59 ± 0.84 J/K/mol
250 K, Crystal of intercomponent compound 2, relaxation calorimetry + DSC, x2 = 0.804 | 20.99 ± 0.85 J/K/mol
253.66 K, Crystal of intercomponent compound 2, relaxation calorimeter, x2 = 0.804 | 21.14 ± 0.86 J/K/mol
253.67 K, Crystal of intercomponent compound 1, relaxation calorimetry, x2 = 0.81 | 20.58 ± 0.84 J/K/mol
253.68 K, Crystal of intercomponent compound 2, relaxation calorimeter, x2 = 0.804 | 21.27 ± 0.86 J/K/mol
257.65 K, Crystal of intercomponent compound 2, relaxation calorimeter, x2 = 0.804 | 21.3 ± 0.87 J/K/mol
257.66 K, Crystal of intercomponent compound 1, relaxation calorimetry, x2 = 0.81 | 20.7 ± 0.84 J/K/mol
257.68 K, Crystal of intercomponent compound 2, relaxation calorimeter, x2 = 0.804 | 21.42 ± 0.87 J/K/mol
260 K, Crystal of intercomponent compound 1, relaxation calorimetry + DSC, x2 = 0.81 | 20.98 ± 0.85 J/K/mol
260 K, Crystal of intercomponent compound 2, relaxation calorimetry + DSC, x2 = 0.804 | 21.37 ± 0.87 J/K/mol
261.78 K, Crystal of intercomponent compound 1, relaxation calorimetry, x2 = 0.81 | 20.8 ± 0.84 J/K/mol
261.78 K, Crystal of intercomponent compound 2, relaxation calorimeter, x2 = 0.804 | 21.42 ± 0.87 J/K/mol
261.79 K, Crystal of intercomponent compound 2, relaxation calorimeter, x2 = 0.804 | 21.54 ± 0.87 J/K/mol
265.83 K, Crystal of intercomponent compound 2, relaxation calorimeter, x2 = 0.804 | 21.55 ± 0.88 J/K/mol
265.84 K, Crystal of intercomponent compound 1, relaxation calorimetry, x2 = 0.81 | 20.92 ± 0.85 J/K/mol
265.86 K, Crystal of intercomponent compound 2, relaxation calorimeter, x2 = 0.804 | 21.64 ± 0.88 J/K/mol
269.82 K, Crystal of intercomponent compound 2, relaxation calorimeter, x2 = 0.804 | 21.67 ± 0.88 J/K/mol
269.85 K, Crystal of intercomponent compound 1, relaxation calorimetry, x2 = 0.81 | 21.06 ± 0.86 J/K/mol
269.85 K, Crystal of intercomponent compound 2, relaxation calorimeter, x2 = 0.804 | 21.75 ± 0.88 J/K/mol
270 K, Crystal of intercomponent compound 1, relaxation calorimetry + DSC, x2 = 0.81 | 21.36 ± 0.87 J/K/mol
270 K, Crystal of intercomponent compound 2, relaxation calorimetry + DSC, x2 = 0.804 | 21.73 ± 0.88 J/K/mol
273.88 K, Crystal of intercomponent compound 2, relaxation calorimeter, x2 = 0.804 | 21.84 ± 0.89 J/K/mol
273.9 K, Crystal of intercomponent compound 1, relaxation calorimetry, x2 = 0.81 | 21.15 ± 0.86 J/K/mol
273.91 K, Crystal of intercomponent compound 2, relaxation calorimeter, x2 = 0.804 | 21.9 ± 0.89 J/K/mol
278.02 K, Crystal of intercomponent compound 1, relaxation calorimetry, x2 = 0.81 | 21.25 ± 0.86 J/K/mol
278.02 K, Crystal of intercomponent compound 2, relaxation calorimeter, x2 = 0.804 | 21.93 ± 0.89 J/K/mol
278.04 K, Crystal of intercomponent compound 2, relaxation calorimeter, x2 = 0.804 | 22 ± 0.89 J/K/mol
280 K, Crystal of intercomponent compound 1, relaxation calorimetry + DSC, x2 = 0.81 | 21.72 ± 0.88 J/K/mol
280 K, Crystal of intercomponent compound 2, relaxation calorimetry + DSC, x2 = 0.804 | 22.09 ± 0.9 J/K/mol
282.07 K, Crystal of intercomponent compound 2, relaxation calorimeter, x2 = 0.804 | 22.06 ± 0.9 J/K/mol
282.08 K, Crystal of intercomponent compound 1, relaxation calorimetry, x2 = 0.81 | 21.37 ± 0.87 J/K/mol
282.09 K, Crystal of intercomponent compound 2, relaxation calorimeter, x2 = 0.804 | 22.11 ± 0.9 J/K/mol
284.87 K, Crystal of intercomponent compound 1, Small sample (50 mg) DSC, x2 = 0.81 | 22.13 ± 0.54 J/K/mol and 22.16 ± 0.54 J/K/mol
284.87 K, Crystal of intercomponent compound 2, Small sample (50 mg) DSC, x2 = 0.804 | 22.41 ± 0.55 J/K/mol
286.06 K, Crystal of intercomponent compound 2, relaxation calorimeter, x2 = 0.804 | 22.16 ± 0.9 J/K/mol
286.08 K, Crystal of intercomponent compound 1, relaxation calorimetry, x2 = 0.81 | 21.42 ± 0.87 J/K/mol
286.08 K, Crystal of intercomponent compound 2, relaxation calorimeter, x2 = 0.804 | 22.26 ± 0.9 J/K/mol
290 K, Crystal of intercomponent compound 1, relaxation calorimetry + DSC, x2 = 0.81 | 22.08 ± 0.9 J/K/mol
290 K, Crystal of intercomponent compound 2, relaxation calorimetry + DSC, x2 = 0.804 | 22.45 ± 0.91 J/K/mol
290.12 K, Crystal of intercomponent compound 1, relaxation calorimetry, x2 = 0.81 | 21.52 ± 0.87 J/K/mol
290.13 K, Crystal of intercomponent compound 2, relaxation calorimeter, x2 = 0.804 | 22.36 ± 0.91 J/K/mol
294.26 K, Crystal of intercomponent compound 1, relaxation calorimetry, x2 = 0.81 | 21.6 ± 0.88 J/K/mol
294.27 K, Crystal of intercomponent compound 2, relaxation calorimeter, x2 = 0.804 | 22.5 ± 0.91 J/K/mol
294.79 K, Crystal of intercomponent compound 2, Small sample (50 mg) DSC, x2 = 0.804 | 22.86 ± 0.56 J/K/mol
294.8 K, Crystal of intercomponent compound 1, Small sample (50 mg) DSC, x2 = 0.81 | 22.38 ± 0.55 J/K/mol and 22.54 ± 0.55 J/K/mol
298.15 K, Crystal of intercomponent compound 1, relaxation calorimetry + DSC, x2 = 0.81 | 22.38 ± 0.91 J/K/mol
